Results on one substance are retold here after article PMC11758266, “Lipid-Modulated, Graduated Inhibition of N-Glycosylation Pathway Priming Suggests Wide Tolerance of ER Proteostasis to Stress” (ACS Central Science, 2024).

The test system of one data set is HEK293 cells. Kind of data set: HEK-CellCount readout (stained nuclei of live cells, internal cytotoxicity measure). Format: cell-based, human. On the procedure:
Here, the nuclear localization of the transcription factor ATF4 (which leads to subsequent expression of CHOP and cell death) was used as a phenotypic marker of ER stress (Figure 3A). Use of multi(384)-well plate format allowed wild-type HEK cells to be treated with analogues over a titrating concentration range of 0.5 nM to […] for 6 h in a quantitative manner (Figure 3C). After fixation with paraformaldehyde, high-content cellular fluorescence microscopy imaging was used to both determine the site and quantify the location of ATF4[32] (Figure 3B,C). […] In this way, confocal fluorescence microscopy at excitation wavelengths of 405 and 488 nm produced, as a direct primary readout, the intensity of ATF4 located in the nucleus as well as the ratio of ATF4 located between the nucleus (colocalized with Hoechst) and cytoplasm (see Figure 3B,C for representative images and the Supporting Information for channel-by-channel images). Concurrent readout of the number of stained nuclei (Hoechst nuclei stain) in live cells was also used as an internal cytotoxicity measure. This high-content method allowed detailed quantitative cellular dose responses to be determined with precision (Figure 3D). […]
Figure 3 High-content phenotypic screen for putative ER stress inducers. […] Plates were imaged using an OPERA-Phenix high-content imaging platform with fluorescence excitation at 405 and 488 nm. […]

In another data set the target is T1, DPAGT1 (Homo sapiens, UniProt Q9H3H5).
T1 sequence (Q9H3H5 1-408): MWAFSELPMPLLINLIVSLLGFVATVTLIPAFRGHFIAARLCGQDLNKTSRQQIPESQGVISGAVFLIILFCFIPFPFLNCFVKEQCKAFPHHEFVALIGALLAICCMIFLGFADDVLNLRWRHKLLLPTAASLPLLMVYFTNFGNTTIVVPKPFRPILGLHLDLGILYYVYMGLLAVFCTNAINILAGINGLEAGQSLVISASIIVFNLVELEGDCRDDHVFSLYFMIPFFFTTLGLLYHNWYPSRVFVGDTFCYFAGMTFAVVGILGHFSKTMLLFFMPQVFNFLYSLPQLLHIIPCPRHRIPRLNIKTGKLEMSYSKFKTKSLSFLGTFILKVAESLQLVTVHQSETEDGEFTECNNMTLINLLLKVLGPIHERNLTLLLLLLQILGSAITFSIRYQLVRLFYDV
Briefly: Heat-induced denaturation assay of DPAGT1 with bound ligand. Format: binding. From the text:
The structure of DPAGT1 in complex with the archetypal scaffold natural product tunicamycin[21] […] Trp122 moves so as to use its indole moiety to hydrophobically provide a binding “cap” or “lid” over the proximal portion of the 10′-N lipid chain.

By EC50 is commonly meant the concentration needed to bring the measured effect to its halfway point. As to tunicamycin [reference compound], the “cell death (in words)” value with HEK293 cells is listed as “causing cell death”. In addition, in the data set on HEK293 cells (6 h, live cell nuclei count, read-out: EC50, cell death), the EC50 is about 10 µM. The “Tm,1/2 of DPAGT1 bound to ligand” value at DPAGT1 (heat-induced denaturation, DPAGT1 alone 51.7 ± 0.2 °C) was determined as 83.0 ± 0.4 °C. Besides, at DPAGT1 (versus DPAGT1 alone), the “ΔTm,1/2 of DPAGT1” value amounted to 31.3 °C.
